# According to US20230096789A1, “PHARMACEUTICAL COMPOSITION FOR INHIBITING INFLAMMATORY RESPONSE COMPRISING HYDROXYUREA” (priority 2020, published 2023):
# Like-named read-outs stand apart in the source and are kept apart here.
# B1: G-CSF (protein, UniProt P09919 31-207, looked up)
# Granulocyte …: TPLGPASSLPQSFLLKCLEQVRKIQGDGAALQEKLVSECATYKLCHPEELVLLGHSLGIPWAPLSSCPSQALQLAGCLSQLHSGLFLYQGLLQALEGISPELGPTLDTLQLDVADFATTIWQQMEELGMAPALQPTQGAMPAFASAFQRRAGGVLVASHLQSFLEVSYRVLRHLAQP
# How the values were obtained:
# H1N1 PR8 = experiment: In vitro antiviral effect, MTT cell viability in infected MDCK cells; type: cell-based, influenza A virus; conditions: 0.001 pfu/cell, 72 hours, hydroxyurea up to 1,561 μg/ml
# H3N2 HongKong = experiment: as above; type: cell-based, influenza A virus; conditions: 0.001 pfu/cell, 72 hours, hydroxyurea up to 1,561 μg/ml
# Lee = experiment: as above; type: cell-based, influenza B virus; conditions: 0.001 pfu/cell, 72 hours, hydroxyurea up to 1,561 μg/ml
# [1] = tested on: mice infected with H1N1 influenza A (PR8 strain) virus; type: in vivo, mice (BALB/c)
# [2] = tested on: mice infected with the WR strain of vaccinia virus; type: in vivo; conditions: WR 1×10^5 pfu; HU 80 mg/kg/day on days 2 to 14, started 2 days after infection
# [3] = tested on: monkeys with systemic inflammatory syndrome induced by vaccinia virus VV^tk−; type: in vivo, cynomolgus monkeys
# Description: Male cynomolgus monkeys (n=3) aged 45 to 55 months were subjected to systemic administration of only VV^tk− (1×10^8 pfu), which induces a systemic inflammatory response, or both VV^tk− and hydroxyurea (VV^tk−: 1×10^8 pfu, HU: 80 mg/kg/day and 30 mg/kg/day). Then, toxicity was evaluated by measuring levels of systemic inflammation and pustules, body temperature, body weight, and the like.
# [4] = tested on: mice with sepsis induced by the Western Reserve strain of vaccinia virus; conditions: mouse, in vivo
# [5] = tested on: monkeys with systemic inflammatory syndrome induced by the Western Reserve strain of vaccinia virus
# [6] = tested on: mice infected with H1N1 influenza A virus (maPR8); experiment: Influenza virus-induced sepsis model (II), body weight and survival (Experimental Example 6); type: in vivo, BALB/c mice
# MDCK cells = experiment: Cytotoxicity (CC50) by MTT assay; conditions: 72 hours
# [7] = tested on: mouse model with sepsis induced by lipopolysaccharide (LPS, from Escherichia coli O55: B5); experiment: Bacterial LPS-induced sepsis model, survival (Experimental Example 1); type: in vivo, mice; conditions: LPS 10 mg/kg i.p., n=7
# Description: To identify whether treatment with hydroxyurea could increase survival through an immune response in a mouse model with sepsis induced by lipopolysaccharide (LPS, from Escherichia coli O55: B5L2880, Sigma), an animal experiment was performed.
# Each group consisted of 7 mice, and intraperitoneal administration of LPS was performed at 10 mg/kg on day 0. Two groups excluding a control group were subjected to intraperitoneal administration of hydroxyurea at 30 mg/kg once a day or twice a day for 5 days per one week starting from the day before the treatment with LPS (FIG. 1).
# mice given LPS = experiment: LPS-induced sepsis model (II), survival and ANC (Experimental Example 7); type: in vivo, BALB/c mice; conditions: for survival: until day 12; for ANC: blood on day 12
# Description: Twenty-one BALB/c mice (about 8 weeks old) were divided into 3 groups (LPS, LPS+HU_30, LPS+HU_60; n=7/group). All mice received intraperitoneal administration of LPS at 10 mg/kg on day 0. The mice of the group (LPS+HU_30) received hydroxyurea (30 mg/kg/day, from day -1 to day 3) once a day, and the mice of the group (LPS+HU_60) received hydroxyurea (60 mg/kg/day, from day -1 to day 3) twice a day. Survival of the mice of each group was measured until day 12 at 3-day intervals, and blood samples were collected on day 12 to check the absolute neutrophil count in blood.
# [8] = tested on: mice given wild-type WR strain of vaccinia virus; experiment: Histological analysis (H&E) of liver and lung tissues after wild-type WR vaccinia virus (Experimental Example 2.2); type: in vivo; conditions: wild-type WR 1×10^7 pfu intranasal, HU 50 mg/kg, G-CSF 25 μg/kg
# [9] = tested on: mice infected with the WR strain of vaccinia virus; type: in vivo, BALB/c mice; conditions: for survival: WR low (1×10^5 pfu) or high (1×10^7 pfu) dose, HU 50 mg/kg/day i.p. days 0 to 14, G-CSF 25 μg/kg/day i.p. days 0 to 5; for lung tissue histology: compared with other groups
# [10] = co-administration vs virus only
# [11] = WR 1×10^8 pfu + HU, vs virus only
molecule,measurement,setting,value
"NC12CC3CC(CC(C3)C1)C2 [AMT, amantadine]",antiviral effect,H1N1 PR8,next clear effect
same,antiviral effect,H3N2 HongKong,next clear effect
same,antiviral effect,Lee,next clear effect
"CCOC(=O)C1=C[C@@H](OC(CC)CC)[C@H](NC(C)=O)[C@@H](N)C1 [Tamiflu, oseltamivir]",survival,"[1]; mouse, in vivo",survived regardless of the concentration
NC(=O)NO [hydroxyurea],"protective effect (survival, body weight)",[2],protective effect
same,systemic inflammation and skin rash lesions (pustules),"[3]; VV^tk− 1×10^8 pfu + HU 80 mg/kg/day and 30 mg/kg/day, vs virus only",remarkably weakened systemic inflammation and inhibition of skin rash lesions such as pustules
same,absolute neutrophil count,[3]; co-administration,decreased on average and remained stable
same,number of virus particles,[3]; co-administration,decreased on average and remained stable
same,body temperature,[3]; [10],did not show any significant increase in body temperature
same,body weight loss,[3]; [10],no difference in body weight loss
same,number of virus particles in blood,[4],highest number of virus particles
same,survival until day 21,[4],40%
same,systemic inflammation and skin rash lesions (pustules),"[5]; WR 1×10^8 pfu + HU 80 mg/kg/day and 30 mg/kg/day, vs virus only",remarkably weakened systemic inflammation and inhibition of skin rash lesions such as pustules
same,body temperature,[5]; [11],did not show any significant increase in body temperature
same,body weight loss,[5]; [11],no difference in body weight loss
same,absolute lymphocyte count (ALC),"[5]; co-administration group, blood",decreased on average and remained stable
same,absolute neutrophil count (ANC),"[5]; co-administration group, blood",decreased on average and remained stable
same,white blood cell count (WBC),"[5]; co-administration group, blood",decreased on average and remained stable
same,number of virus particles in blood,"[5]; day 8 after virus administration, co-administration vs virus only",no significant difference
same,survival,"[6]; hydroxyurea 50 mg/kg q.d. days -2 to 14, until day 20, n=7",70%
same,body weight,"[6]; hydroxyurea 50 mg/kg q.d., loss until day 10",recovered to the initial weight on day 20
same,body weight / condition course,"[1]; mouse, in vivo",returned to a healthy condition on day 18
same,surviving mice,[1]; n=7,5 mice
same,CC50,MDCK cells,"1,561 μg/ml"
same,antiviral effect,H1N1 PR8,did not show any antiviral effect
same,survival until day 12,[7]; hydroxyurea 30 mg/kg i.p. once a day,17%
same,survival until day 12,[7]; hydroxyurea 30 mg/kg i.p. twice a day,43%
same,survival,"mice given LPS; LPS+HU_30: 30 mg/kg/day, day -1 to day 3, once a day",remarkably increased survival
same,ANC,mice given LPS; LPS+HU_30,decreased ANC
same,survival,"mice given LPS; LPS+HU_60: 60 mg/kg/day, day -1 to day 3, twice a day",remarkably increased survival
same,ANC,mice given LPS; LPS+HU_60,decreased ANC
same,antiviral effect,H3N2 HongKong,did not show any antiviral effect
same,severity in leakage and exudate levels in the alveoli and ischemic change level in the liver tissue (order of groups),[8],"in the order of the group having received hydroxyurea, the group having received G-CSF, and the control group"
same,antiviral effect,Lee,did not show any antiviral effect
same,absolute neutrophil count (ANC),"[9]; WR high dose (1×10^7 pfu), HU 50 mg/kg/day",decreased absolute neutrophil count
same,survival,[9],increased survival
same,lung tissue histology,[9],improved aspect
same,infection by immunofluorescence staining for protein A56 (bronchi),"[9]; lung tissue, between saline, G-CSF and HU groups",no significant difference between the three groups
NC(=O)c1ncn([C@@H]2O[C@H](CO)[C@@H](O)[C@H]2O)n1 [ribavirin],antiviral effect,H1N1 PR8,next clear effect
same,antiviral effect,H3N2 HongKong,next clear effect
same,antiviral effect,Lee,next clear effect
B1,time within which all mice died after administration of the WR strain,[4],≤ 14 days
same,severity in leakage and exudate levels in the alveoli and ischemic change level in the liver tissue (order of groups),[8],"in the order of the group having received hydroxyurea, the group having received G-CSF, and the control group"
same,survival,[9],decreased survival
same,absolute neutrophil count (ANC),"[9]; WR low or high dose, G-CSF 25 μg/kg/day",remarkably increased absolute neutrophil count
same,lung tissue histology,[9],lung edema was observed
